{"source": "patent US11981921B2", "about": "“TIL expansion processes using specific cytokine combinations and/or AKTi treatment” (Iovance Biotherapeutics, Inc., priority 2022, dated 2024)", "key": {"[1]": {"test_system": "TIL", "test": "AKT inhibition during ex vivo TIL expansion (REP)", "type": "cell-based", "procedure": "Patient tumors from different indications were received, fragmented, and subjected to an expansion protocol for TIL manufacturing. Different doses (0.3 μM and 1 μM) of the pan-AKT inhibitor (AKTi) ipatasertib were added to the culture during ex vivo expansion. The expansion potential, as well as the phenotypic and functional characteristics of TIL were evaluated on the final TIL product."}, "[2]": {"test_system": "TILs", "conditions": "1 or 2 uM given once or twice, with IL-2 1000 IU/ml + IL-21 10 ng/ml", "description": "(§1) The overarching goal of these experiments is to examine the growth conditions during the whole expansion process of TILs to augment their stem-like attributes while improving their functional and phenotypic characteristics.\nFrozen pre-REP TILs were thawed and REPed under different conditions in 24-well GREX plates. […] Pre-REP TILs from 3 different indications were thawed and REPped in a G-REX 24 well plate. The following conditions were included in the REP protocol used in 24-well G-Rex plates: • 1) Feeder:TIL ratio 250:1 with 5 million feeders and 20,000 TILs per well, OKT3 at 30 ng/mL, • 2) On day 0 the REP is initiated with 3 mL of CM2 with cytokines and compounds, • 3) On day five 5 mL of CM4 media was added to each well, • 4) All cytokines and compounds are added twice on day 0 and day 5."}, "[3]": {"test_system": "TILs", "procedure": "This Example describes the evaluation of the effects of IL-21 (10 ng/ml)+ AZD5363 in combination with increasing doses of IL-2 or IL-15 and evaluation of the overall impact on preventing effector differentiation, promoting more stem-like attributes and improving functionality of TILs during REP. The overarching goal of these experiments is to examine the growth conditions during the whole expansion process of TILs to augment their stem-like attributes while improving their functional and phenotypic characteristics.\nFrozen pre-REP TILs were thawed and REPed under different conditions in 24-well GREX plates. Cytokines were given twice (Day 0 and Day 5 of pre-REP). Pre-REP TILs from 3 different indications were thawed and REPped in a G-REX 24 well plate. The following conditions were included in the REP protocol used in 24-well G-Rex plates: • 1) Feeder:TIL ratio 250:1 with 5 million feeders and 20,000 TILs per well, OKT3 at 30 ng/mL, • 2) On day 0 the REP is initiated with 3 mL of CM2 with cytokines and compounds, • 3) On day five 5 mL of CM4 media was added to each well, • 4) All cytokines and compounds are added twice on day 0 and day 5. The following conditions were tested: IL-2 3000 IU/mL, IL-2 2000 IU/mL, IL-2 1000 IU/mL, IL-2 3000 IU/mL+IL-21 10 ng/ml, IL-2 2000 IU/mL+IL-21 10 ng/ml, IL-2 1000 IU/mL+IL-21 10 ng/ml, IL-2 3000 IU/mL+IL-21 10 ng/ml+2 uM AZD5363 (added once), IL-2 2000 IU/mL+IL-21 10 ng/ml+2 uM AZD5363 (added once), IL-2 1000 IU/mL+IL-21 10 ng/ml+2 uM AZD5363 (added once), and IL-15 10 ng/ml+IL-21 10 ng/ml+1 uM AZD5363 (added twice)."}, "[4]": {"test_system": "TILs", "description": "as §1\nPre-REP TILs from 3 different indications were thawed and REPped in a G-REX 24 well plate. Cytokines were given twice (Day 0 and Day 5 of pre-REP). The following conditions were included in the REP protocol used in 24-well G-Rex plates: • 1) Feeder:TIL ratio 250:1 with 5 million feeders and 20,000 TILs per well, OKT3 at 30 ng/mL, • 2) On day 0 the REP is initiated with 3 mL of CM2 with cytokines and compounds, • 3) On day five 5 mL of CM4 media was added to each well, • 4) All cytokines and compounds are added twice on day 0 and day 5.", "remark": "listed apart in the source"}, "[5]": {"test_system": "TILs", "test": "Evaluation of I-TIL process conditions (pre-REP and REP, 18 tumors)", "type": "cell-based", "procedure": "Tumors (N=18) were received and processed for both pre-REP and REP expansion to test and select a preferred set of conditions, nominated as the final I-TIL (invigorated TIL) conditions.\nCytokines were added twice on Day 0 and Day 5 of pre-REP.\nPre-REP cells were then frozen until all pre-REP samples were generated in order to initiate the REP together at the same time. Frozen pre-REP TILs were thawed and rested overnight in their corresponding conditions followed by REP in 24-well G-Rex plates. […] Cytokines were added twice on Day 0 and Day 5 and AZD5363 was only added once on Day 0 of REP."}, "[6]": {"test_system": "KILR® THP-1 cells", "test": "TIL cytotoxicity in coculture with KILR THP-1 cells", "type": "cell-based", "conditions": "24 hrs coculture, 10:1, Invigo-T process", "procedure": "TILs were then tested for cytotoxicity in an allogeneic environment after coculture for 24 hrs with KILR® THP-1 cells at a 10:1 effector-to-target cell. […] TILs were next stimulated every 3 days with TransAct followed by coculture for 24 hrs with KILR® THP-1 cells before being assessed for cytotoxicity and IFNg expression (as measured byflow cytometry staining)."}, "[7]": {"conditions": "AKTi treatment during ex vivo expansion"}, "[8]": {"conditions": "with IL-15 10 ng/ml + IL-21 10 ng/ml"}}, "note": "Where two headings read alike, the source gives them in different places.", "data": [{"compound": "CC(C)NC[C@@H](C(=O)N1CCN(c2ncnc3c2[C@H](C)C[C@H]3O)CC1)c1ccc(Cl)cc1", "note": "[AKTi, ipatasertib]", "values": [{"measurement": "expansion and viability of TIL", "setting": "[1]; 1 μM dose, relative to control", "result": "equivalent"}, {"measurement": "population of less differentiated CD39−CD69− cells", "setting": "[1]; 1 μM dose, relative to control, present even after re-stimulation", "result": "doubled"}, {"measurement": "cytotoxicity of TIL", "setting": "[1]; [7]", "result": "increased cytotoxicity"}, {"measurement": "frequency of IFNγ+TNFα+CD8+ T cells", "setting": "[1]; [7]", "result": "increase"}, {"measurement": "expression of CD38 and transcription factors T-bet and Tox", "setting": "[1]; CD39−CD69− cells after re-stimulation", "result": "reduced expression"}]}, {"compound": "AZD5363", "values": [{"measurement": "phenotypic changes on TILs (inhibitory receptors, activation, stem-like qualities, functionality)", "setting": "[2]", "result": "further beneficial phenotypic changes"}, {"measurement": "effector differentiation, stem-like phenotype, functional responses, inhibitory receptor expression", "setting": "[3]; 2 uM given once, with IL-2 1000 IU/ml + IL-21 10 ng/ml", "result": "induces many of the desired changes"}, {"measurement": "activation state of TILs", "setting": "[3]; IL-15 combination", "result": "further reduced"}, {"measurement": "effects on cytokine production, in particular IL-2", "setting": "[3]; [8]", "result": "quite significant"}, {"measurement": "same effects with IL-15 instead of IL-2", "setting": "[3]; with IL-15 10 ng/ml + IL-21 10 ng/ml, vs IL-2 combination", "result": "comparable"}, {"measurement": "effector differentiation, stem-like phenotype, functional responses, inhibitory receptor expression", "setting": "[4]; [8]", "result": "induces many of the desired changes"}, {"measurement": "effects on increasing IFNg, TNFa and IL-2", "setting": "[4]; with IL-15 + IL-21, vs IL-2 1000 IU/ml and IL-21 10 ng/ml", "result": "more pronounced"}, {"measurement": "effector differentiation, stem-like phenotype, functional responses, inhibitory receptor expression", "setting": "[5]; 2 uM once on Day 0 of REP, with IL-15 10 ng/ml + IL-21 10 ng/ml", "result": "induces many of the desired changes"}, {"measurement": "effects on increasing IFNg, TNFa and IL-2", "setting": "[5]; with IL-15 + IL-21, vs IL-2 1000 IU/ml + IL-21 10 ng/ml + AZD5363", "result": "more pronounced"}, {"measurement": "cytotoxicity with or without AZD5363", "setting": "[6]", "result": "no significant difference"}]}, {"compound": "IL-15: cytokine used at 10 ng/ml with IL-21 during REP", "values": [{"measurement": "yield and viability of the process", "setting": "[5]; IL-15 conditions", "result": "significantly augmented"}]}]}
